According to ChEMBL document CHEMBL1201862, “PubChem BioAssay data set” (2004):
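Compound exposure: 48 hours, 5 concentrations, 96-well plates. At the GI50, growth is halved.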 Active and inactive are the calls of the source. No stated cut-off is given here; in the data, active = GI50 up to about 1.1 µM and inactive = higher.

Experiments:
Test in all cases: inhibition of tumour cell growth, NCI panel, 48 h
SNB-75 = system: SNB-75
SK-MEL-5 = system: SK-MEL-5
IGROV-1 = system: IGROV-1
SN12C = system: SN12C
A549 = system: A549
HL-60 = system: HL-60
EKVX = system: EKVX
A498 = system: A498
HCT-15 = system: HCT-15
HT-29 = system: HT-29
U-251 = system: U-251
MDA-MB-231 = system: MDA-MB-231
KM12 = system: KM12
MCF7 = system: MCF7
OVCAR-4 = system: OVCAR-4
SK-MEL-28 = system: SK-MEL-28
HOP-62 = system: HOP-62
TK-10 = system: TK-10
SF-539 = system: SF-539
SW-620 = system: SW-620
PC-3 = system: PC-3
NCI-H522 = system: NCI-H522
SF-295 = system: SF-295
HCT-116 = system: HCT-116
M14 = system: M14
HOP-92 = system: HOP-92
ACHN = system: ACHN
RXF 393 = system: RXF 393
NCI-H226 = system: NCI-H226
RPMI-8226 = system: RPMI-8226
NCI/ADR-RES = system: NCI/ADR-RES
UACC-257 = system: UACC-257
T47D = system: T47D
DU-145 = system: DU-145
OVCAR-5 = system: OVCAR-5
SNB-19 = system: SNB-19
NCI-H460 = system: NCI-H460
UACC-62 = system: UACC-62
MDA-MB-435 = system: MDA-MB-435
BT-549 = system: BT-549
CAKI-1 = system: CAKI-1
LOX IMVI = system: LOX IMVI
SK-MEL-2 = system: SK-MEL-2
CCRF-CEM = system: CCRF-CEM
COLO 205 = system: COLO 205
NCI-H23 = system: NCI-H23
MOLT-4 = system: MOLT-4
K562 = system: K562
SF-268 = system: SF-268
OVCAR-3 = system: OVCAR-3
UO-31 = system: UO-31
OVCAR-8 = system: OVCAR-8
Malme-3M = system: Malme-3M
SR = system: SR
SK-OV-3 = system: SK-OV-3
786-0 = system: 786-0
Hs-578T = system: Hs-578T
HCC 2998 = system: HCC 2998
MDA-N = system: MDA-N

## O=C1CCSC(=S)N1c1ccc(Br)c(Cl)c1
SNB-75
  GI50: 25.5 µM (inactive)
SK-MEL-5
  GI50: 18.4 µM (inactive)
IGROV-1
  GI50: 24.8 µM (inactive)
SN12C
  GI50: 41.2 µM (inactive)
A549
  GI50: 35.3 µM (inactive)
HL-60
  GI50: 26 µM (inactive)
EKVX
  GI50: 44.8 µM (inactive)
A498
  GI50: 22.2 µM (inactive)
HCT-15
  GI50: 20.4 µM
HT-29
  GI50: 16.1 µM (inactive)
U-251
  GI50: 27.1 µM (inactive)
MDA-MB-231
  GI50: 29 µM (inactive)
KM12
  GI50: 31.2 µM (inactive)
MCF7
  GI50: 17.9 µM (inactive)
OVCAR-4
  GI50: 22.2 µM (inactive)
SK-MEL-28
  GI50: 17.7 µM (inactive)
HOP-62
  GI50: 31.9 µM (inactive)
TK-10
  GI50: 30.2 µM (inactive)
SF-539
  GI50: 33 µM (inactive)
SW-620
  GI50: 28.1 µM (inactive)
PC-3
  GI50: 34.5 µM (inactive)
NCI-H522
  GI50: 21 µM (inactive)
SF-295
  GI50: 32.7 µM (inactive)
HCT-116
  GI50: 36.5 µM (inactive)
M14
  GI50: 58.1 µM (inactive)
HOP-92
  GI50: 25.4 µM (inactive)
ACHN
  GI50: 21.6 µM (inactive)
RXF 393
  GI50: 20.1 µM (inactive)
NCI-H226
  GI50: 27.3 µM (inactive)
RPMI-8226
  GI50: 33.7 µM (inactive)
NCI/ADR-RES
  GI50: 42.9 µM (inactive)
UACC-257
  GI50: 19.9 µM (inactive)
T47D
  GI50: 14.9 µM (inactive)
DU-145
  GI50: 43.8 µM (inactive)
OVCAR-5
  GI50: 43.9 µM (inactive)
SNB-19
  GI50: 23.7 µM (inactive)
NCI-H460
  GI50: 21.8 µM (inactive)
UACC-62
  GI50: 23.6 µM (inactive)
MDA-MB-435
  GI50: 26.8 µM (inactive)
BT-549
  GI50: 21.1 µM (inactive)
CAKI-1
  GI50: 29.6 µM (inactive)
LOX IMVI
  GI50: 22 µM (inactive)
SK-MEL-2
  GI50: 28.4 µM (inactive)
CCRF-CEM
  GI50: 60.5 µM (inactive)
COLO 205
  GI50: 20.2 µM (inactive)
NCI-H23
  GI50: 53.2 µM (inactive)
MOLT-4
  GI50: 37.4 µM (inactive)
K562
  GI50: 32.9 µM (inactive)
SF-268
  GI50: 18.5 µM (inactive)
OVCAR-3
  GI50: 37.6 µM (inactive)
UO-31
  GI50: 30.2 µM (inactive)
OVCAR-8
  GI50: 30.5 µM (inactive)
Malme-3M
  GI50: 22.9 µM (inactive)
SR
  GI50: 32 µM (inactive)
SK-OV-3
  GI50: 37.6 µM (inactive)
786-0
  GI50: 24.4 µM (inactive)
Hs-578T
  GI50: 39 µM (inactive)

## CCCCCCCCCCCCCCCCNc1nc(=O)n(C2CC(O)C(COP(=O)(O)OC3CC(n4cc(F)c(=O)[nH]c4=O)OC3CO)O2)cc1F (stereo not given)
SNB-75
  GI50: 4.98 µM (inactive)
SK-MEL-5
  GI50: 0.571 µM (active)
IGROV-1
  GI50: 1.95 µM (inactive)
SN12C
  GI50: 0.264 µM (active)
A549
  GI50: 0.0333 µM (active)
HL-60
  GI50: 0.328 µM (active)
EKVX
  GI50: 26.4 µM (inactive)
A498
  GI50: 0.09 µM (active)
HCT-15
  GI50: 3.18 µM
HT-29
  GI50: 1.87 µM (inactive)
U-251
  GI50: 1.66 µM (inactive)
MDA-MB-231
  GI50: 28.4 µM (inactive)
KM12
  GI50: 20.7 µM (inactive)
MCF7
  GI50: < 0.01 µM (active)
OVCAR-4
  GI50: 92.3 µM (inactive)
SK-MEL-28
  GI50: 14.2 µM (inactive)
HOP-62
  GI50: < 0.0296 µM (active)
TK-10
  GI50: 25.7 µM (inactive)
SF-539
  GI50: < 0.0108 µM (active)
SW-620
  GI50: 32.1 µM (inactive)
PC-3
  GI50: 6.35 µM (inactive)
NCI-H522
  GI50: 8.75 µM (inactive)
HCT-116
  GI50: 0.504 µM (active)
M14
  GI50: 0.687 µM (active)
HOP-92
  GI50: 4.38 µM (inactive)
ACHN
  GI50: 0.0234 µM (active)
RXF 393
  GI50: 6.97 µM (inactive)
NCI-H226
  GI50: 9.51 µM (inactive)
RPMI-8226
  GI50: 0.0822 µM (active)
NCI/ADR-RES
  GI50: 0.634 µM (active)
UACC-257
  GI50: 12.8 µM (inactive)
T47D
  GI50: 6.68 µM (inactive)
DU-145
  GI50: 0.222 µM (active)
OVCAR-5
  GI50: 29.7 µM (inactive)
SNB-19
  GI50: 0.27 µM (active)
HCC 2998
  GI50: < 0.01 µM (active)
UACC-62
  GI50: 0.337 µM (active)
MDA-MB-435
  GI50: 13.1 µM (inactive)
CAKI-1
  GI50: 0.258 µM (active)
LOX IMVI
  GI50: 0.0637 µM (active)
SK-MEL-2
  GI50: 30.1 µM (inactive)
CCRF-CEM
  GI50: < 0.0122 µM (active)
COLO 205
  GI50: 10.9 µM (inactive)
NCI-H23
  GI50: 0.44 µM (active)
MOLT-4
  GI50: 1.95 µM (inactive)
MDA-N
  GI50: 19.4 µM (inactive)
K562
  GI50: 1.41 µM (inactive)
SF-268
  GI50: < 0.0218 µM (active)
OVCAR-3
  GI50: 10 µM (inactive)
UO-31
  GI50: 0.257 µM (active)
OVCAR-8
  GI50: 0.296 µM (active)
Malme-3M
  GI50: 12.1 µM (inactive)
SR
  GI50: < 0.0243 µM (active)
SK-OV-3
  GI50: 11.6 µM (inactive)
786-0
  GI50: 0.416 µM (active)
Hs-578T
  GI50: 15.6 µM (inactive)

## FC(F)=C(c1ccc(-c2ccc(Cl)cc2)cc1)C(F)(F)F
SNB-75
  GI50: 11 µM (inactive)
SK-MEL-5
  GI50: 18.2 µM (inactive)
IGROV-1
  GI50: 17 µM (inactive)
SN12C
  GI50: 20.3 µM (inactive)
A549
  GI50: 17.9 µM (inactive)
HL-60
  GI50: 45.3 µM (inactive)
EKVX
  GI50: 19.7 µM (inactive)
A498
  GI50: 16.8 µM (inactive)
HCT-15
  GI50: 20.4 µM
HT-29
  GI50: 25.6 µM (inactive)
U-251
  GI50: 16.7 µM (inactive)
MDA-MB-231
  GI50: 17.7 µM (inactive)
KM12
  GI50: 19.3 µM (inactive)
OVCAR-4
  GI50: 18.5 µM (inactive)
SK-MEL-28
  GI50: 12.4 µM (inactive)
TK-10
  GI50: 15.8 µM (inactive)
SF-539
  GI50: 20.7 µM (inactive)
SW-620
  GI50: 20 µM (inactive)
PC-3
  GI50: 17.3 µM (inactive)
NCI-H522
  GI50: 20.3 µM (inactive)
SF-295
  GI50: 22.5 µM (inactive)
HCT-116
  GI50: 17.5 µM (inactive)
M14
  GI50: 19.7 µM (inactive)
HOP-92
  GI50: 15.1 µM (inactive)
ACHN
  GI50: 17.3 µM (inactive)
RXF 393
  GI50: 20.6 µM (inactive)
RPMI-8226
  GI50: 23.3 µM (inactive)
NCI/ADR-RES
  GI50: 26.1 µM (inactive)
UACC-257
  GI50: 20 µM (inactive)
T47D
  GI50: 28.2 µM (inactive)
DU-145
  GI50: 18.7 µM (inactive)
OVCAR-5
  GI50: 17.5 µM (inactive)
SNB-19
  GI50: 19.3 µM (inactive)
NCI-H460
  GI50: 17.7 µM (inactive)
UACC-62
  GI50: 19 µM (inactive)
MDA-MB-435
  GI50: 20.2 µM (inactive)
BT-549
  GI50: 18.2 µM (inactive)
CAKI-1
  GI50: 19.8 µM (inactive)
SK-MEL-2
  GI50: 23.7 µM (inactive)
CCRF-CEM
  GI50: 26.8 µM (inactive)
COLO 205
  GI50: 17.9 µM (inactive)
NCI-H23
  GI50: 17.5 µM (inactive)
MOLT-4
  GI50: 32.3 µM (inactive)
K562
  GI50: 26.2 µM (inactive)
SF-268
  GI50: 23.9 µM (inactive)
UO-31
  GI50: 16.4 µM (inactive)
OVCAR-8
  GI50: 24.3 µM (inactive)
Malme-3M
  GI50: 17.2 µM (inactive)
SR
  GI50: 23.3 µM (inactive)
SK-OV-3
  GI50: 21 µM (inactive)
786-0
  GI50: 19.8 µM (inactive)
Hs-578T
  GI50: 26.1 µM (inactive)
